Measured values taken from patent publication US20210038545A1 (priority 2018, published 2021).

Key:
[1] = system: respiratory bacterial (including pneumococcal) and fungal infections; conditions: Ciarlo et al., 2016; cited from earlier work
S. pneumoniae [2] = conditions: mice colonized with IAV microbiota; 30 hrs after challenge; FIG. 4A
S. pneumoniae [3] = conditions: IAV (H3N2)-infected mice as printed; acetate from day 2 p.i.; 1×10^3 CFUs at 7 dpi; 30 hrs later; FIG. 4B
S. pneumoniae [4] = conditions: mouse, in vivo

Row | Compound | modulation of host defenses against respiratory bacterial and fungal infections [1] | protective effect of acetate in Ffa2−/− mice (S. pneumoniae serotype 1; Ffa2−/− mice relative to FFA2-competent mice, FIG. 1B) | number of bacteria in the spleen (S. pneumoniae serotype 1; acetate 200 mM drinking water for five days before 1×10^6 CFUs i.n., 30 hours after challenge, FIG. 1A lower panel) | number of bacteria in the lungs (S. pneumoniae serotype 1; acetate 200 mM drinking water for five days before 1×10^6 CFUs i.n., 30 hours after challenge, vs vehicle, FIG. 1A upper panel) | number of pneumococci in lungs (S. pneumoniae [2]) | systemic dissemination of pneumococci out of the lungs (S. pneumoniae [2]) | bacterial load in the lung (S. pneumoniae [3]) | bacterial load in the spleen (S. pneumoniae [3]) | bacterial loads in the lung (S. pneumoniae [4]) | bacterial loads in the spleen (S. pneumoniae [4]) | survival rate of double-infected mice (S. pneumoniae [4])
1 | CCC(=O)O [propionate] | failed to modulate |  |  |  |  |  |  |  |  |  | 
2 | CC(=O)O [acetate] |  | significantly reduced | lowered | significantly reduced | lower number | lowered | significant lower | significant lower | significantly reduced | significantly reduced | significant enhancement
